Results: patent US4017540A, “Method of use, composition, and compounds” (The Upjohn Company, priority 1972, dated 1977)
“And” between values parts separate entries of the source, which are not always exact repeats. Equal values may be shown once. “Also recorded” adds a separate entry of the source.

Experiments:
[1] = anorexigenic activity; conditions: in vivo
[2] = tested on: insects and mites; assay: insecticidal and miticidal activity (general); conditions: in vivo
[3] = tested on: Oesophagostomum; assay: preliminary test with worm infested lambs, Oesophagostomum; format: in vivo; conditions: one lamb, 300 mg./kg. oral
Procedure: (§1) A preliminary test with lambs was effected by maintaining worm infested lambs under satisfactory environmental conditions with feed and water available ad libitum. Pretreatment fecal examinations were made in order to characterize and evaluate the parasitism of each animal. The presence of helminth ova was recorded in terms of the number of eggs per gram of feces.
(§2) On the day of treatment, each lamb was weighed and a dosage for it was calculated in terms of milligrams of compound per kilogram of body weight. The calculated dosage of compound was pulverized and packed in a gelatin capsule for oral administration.

[4] = tested on: Cooperia; assay: Example 31 lamb test, Cooperia; format: in vivo; conditions: for average number of Cooperia remaining: group average; for total number of Cooperia remaining: group total; for mean percentage efficacy against Cooperia: vs unmedicated controls
Procedure: (§3) At both dosages, the compound p-toluoyl chloride phenylhydrazone was efficacious against Haemonchus, Ostertagia, Nematodirus, Trichostrongylus, Strongyloides, Oesophagostomum, and Cooperia.
(§4) In th comprehesive test with 100 mg./kg. and 200 mg./kg. dosages of p-toluoyl chloride phenylhydrazone, five lambs were used for each dosage level, and five lambs were maintained as unmedicated controls. Daily egg counts in the feces were made before and after treatment. The lambs were killed and examined post-mortem for worms present 11 days after treatment. Helminth populations were recovered, enumerated and identified.
(§5) The mean percentage efficacy against specific helminths in the test lambs was calculated by subtracting the average number of the helminths observed in the treated lambs, postmortem, from the average number observed in the unmedicated controls, post-mortem; dividing the remainder by the latter average number; and multiplying by 100. Accordingly, the means percentage efficacies against the various helminths identified in the test lambs were calculated and found to be as follows: […]

[5] = tested on: Trichuris ovis; assay: preliminary test with worm infested lambs, Trichuris; format: in vivo; conditions: one lamb, 400 mg./kg. oral
Procedure: as §1, §2

[6] = tested on: helminths; assay: Example 31 lamb test, helminths overall; format: in vivo; conditions: 100 mg. and 200 mg. per kg
Procedure: as §3, §4, §5

[7] = tested on: Ostertagia; assay: Example 31 lamb test, Ostertagia; format: in vivo; conditions: for average number of Ostertagia remaining: group average; for total number of Ostertagia remaining: group total; for mean percentage efficacy against Ostertagia: vs unmedicated controls
Procedure: as §3, §4, §5

[8] = tested on: Trichuris; assay: Example 31 lamb test, Trichuris; format: in vivo; conditions: for average number of Trichuris remaining: group average; for total number of Trichuris remaining: group total
Procedure: as §4, §5

[9] = tested on: Haemonchus; assay: Example 31 lamb test, Haemonchus; format: in vivo; conditions: for average number of Haemonchus remaining: group average; for total number of Haemonchus remaining: group total; for mean percentage efficacy against Haemonchus: vs unmedicated controls
Procedure: as §3, §4, §5

[10] = tested on: tapeworm Moniezia; assay: Example 31 lamb test, tapeworm; format: in vivo
Procedure: as §3, §4, §5

[11] = tested on: lambs; conditions: in vivo
Procedure: as §4, with “At both dosages, the compound p-toluoyl chloride phenylhydrazone was efficacious against Haemonchus, Ostertagia, Nematodirus, Trichostrongylus, Strongyloides, Oesophagostomum, and Cooperia. […] In” for “In”

[12] = tested on: Oesophagostomum; assay: Example 31 lamb test, Oesophagostomum; format: in vivo; conditions: for average number of Oesophagostomum remaining: group average; for total number of Oesophagostomum remaining: group total; for mean percentage efficacy against Oesophagostomum: vs unmedicated controls
Procedure: as §3, §4, §5

[13] = tested on: Nematodirus; assay: Example 31 lamb test, Nematodirus; format: in vivo; conditions: for average number of Nematodirus remaining: group average; for total number of Nematodirus remaining: group total; for mean percentage efficacy against Nematodirus: vs unmedicated controls
Procedure: as §3, §4, §5

[14] = tested on: Strongyloides; assay: preliminary test with worm infested lambs, Strongyloides; format: in vivo; conditions: one lamb
Procedure: as §1, §2

[15] = tested on: Ostertagia; assay: preliminary test with worm infested lambs, Ostertagia; format: in vivo; conditions: one lamb
Procedure: as §1, §2

[16] = tested on: parasitic worms; assay: anthelmintic activity (general; sheep); conditions: in vivo
[17] = tested on: helminths; assay: preliminary test with worm infested lambs, helminths overall; format: in vivo; conditions: one lamb
Procedure: as §1, §2
In this preliminary test one lamb received 200 mg. p-toluoyl chloride phenylhydrazone per kilogram of body weight - a total dosage of 5.0 g.

[18] = tested on: Haemonchus; assay: preliminary test with worm infested lambs, Haemonchus; format: in vivo; conditions: one lamb, 300 mg./kg. oral
Procedure: as §1, §2

[19] = tested on: Trichostrongylus; assay: Example 31 lamb test, Trichostrongylus; format: in vivo; conditions: for average number of Trichostrongylus remaining: group average; for total number of Trichostrongylus remaining: group total; for mean percentage efficacy against Trichostrongylus: vs unmedicated controls
Procedure: as §3, §4, §5

[20] = tested on: Strongyloides; assay: Example 31 lamb test, Strongyloides; format: in vivo; conditions: for average number of Strongyloides remaining: group average; for total number of Strongyloides remaining: group total; for mean percentage efficacy against Strongyloides: vs unmedicated controls
Procedure: as §3, §4, §5

[21] = tested on: Trichostrongylus; assay: preliminary test with worm infested lambs, Trichostrongylus; format: in vivo; conditions: one lamb
Procedure: as §1, §2

[22] = tested on: Bunostomum; assay: Example 31 lamb test, Bunostomum; format: in vivo; conditions: 200 mg./kg.
Procedure: as §3, §4, §5

[23] = tested on: Nematodirus; assay: preliminary test with worm infested lambs, Nematodirus; format: in vivo; conditions: one lamb
Procedure: as §1, §2

Compound: ClC(=NNc1c(Cl)cc(Cl)cc1Cl)c1ccc(Cl)cc1 [p-chlorobenzoyl chloride (2,4,6-trichlorophenyl)hydrazone]
- anorexigenic activity [1]: anorexigenic activity

Compound: O=[N+]([O-])c1ccc(NN=C(Cl)c2ccccc2)c([N+](=O)[O-])c1 [Benzoyl chloride (2,4-dinitrophenyl)hydrazone, reference compound]
- insecticidal and miticidal activity [2]: relatively inactive

Compound: Cc1ccc(C(Cl)=NNc2ccccc2)cc1 [p-toluoyl chloride phenylhydrazone]
- activity against Oesophagostomum (egg counts and necropsy) [3]: established activity
- efficacy against Cooperia (in words) ([4]; 100 mg. and 200 mg. per kg): efficacious
- number of Cooperia recovered at necropsy, individual lamb ([4]; 100 mg./kg.): 0
- average number of Cooperia remaining ([4]; 100 mg./kg.): 0
- total number of Cooperia remaining ([4]; 100 mg./kg.): 0
- mean percentage efficacy against Cooperia ([4]; 100 mg./kg., *= only one lamb infected): 100%
- number of Cooperia recovered at necropsy, individual lamb ([4]; 200 mg./kg.): 0
- average number of Cooperia remaining ([4]; 200 mg./kg.): 0
- total number of Cooperia remaining ([4]; 200 mg./kg.): 0
- mean percentage efficacy against Cooperia ([4]; 200 mg./kg.): 100%
- activity against Trichuris ovis [5]: lack of noticeable activity
- overall anthelmintic activity in lambs [6]: excellent activity
- efficacy against Ostertagia (in words) ([7]; 100 mg. and 200 mg. per kg): efficacious
- number of Ostertagia recovered at necropsy, individual lamb ([7]; 100 mg./kg.): 0
- average number of Ostertagia remaining ([7]; 100 mg./kg.): 0
- total number of Ostertagia remaining ([7]; 100 mg./kg.): 0
- mean percentage efficacy against Ostertagia ([7]; 100 mg./kg.): 100%
- number of Ostertagia recovered at necropsy, individual lamb ([7]; 200 mg./kg.): 0
- average number of Ostertagia remaining ([7]; 200 mg./kg.): 0
- total number of Ostertagia remaining ([7]; 200 mg./kg.): 0
- mean percentage efficacy against Ostertagia ([7]; 200 mg./kg.): 100%
- number of Trichuris recovered at necropsy, individual lamb ([8]; 100 mg./kg.): 31 and 83 and 3 and 37 and 4
- average number of Trichuris remaining ([8]; 100 mg./kg.): 32
- total number of Trichuris remaining ([8]; 100 mg./kg.): 158
- mean percentage efficacy against Trichuris ([8]; 100 mg./kg., vs unmedicated controls): 0%
- number of Trichuris recovered at necropsy, individual lamb ([8]; 200 mg./kg.): 6 and 64 and 28 and 56
- average number of Trichuris remaining ([8]; 200 mg./kg.): 39
- total number of Trichuris remaining ([8]; 200 mg./kg.): 154
- efficacy against Haemonchus (in words) ([9]; 100 mg. and 200 mg. per kg): efficacious
- number of Haemonchus recovered at necropsy, individual lamb ([9]; 100 mg./kg.): 2 and 0
- average number of Haemonchus remaining ([9]; 100 mg./kg.): < 1
- total number of Haemonchus remaining ([9]; 100 mg./kg.): 2
- mean percentage efficacy against Haemonchus ([9]; 100 mg./kg.): 99.9%
- number of Haemonchus recovered at necropsy, individual lamb ([9]; 200 mg./kg.): 0 and 1
- average number of Haemonchus remaining ([9]; 200 mg./kg.): < 1
- total number of Haemonchus remaining ([9]; 200 mg./kg.): 1
- mean percentage efficacy against Haemonchus ([9]; 200 mg./kg.): 99.9%
- activity against the tapeworm Moniezia ([10]; 100 mg. and 200 mg. per kg): activity against the tapeworm Moniezia was observed
- activity against tapeworm ([10]; 200 mg./kg.): positive
- number of tapeworm recovered at necropsy, individual lamb ([10]; 200 mg./kg.): 0
- average number of tapeworm remaining ([10]; 200 mg./kg., group average): 0
- total number of tapeworm remaining ([10]; 200 mg./kg., group total): 0
- signs of toxicity to the lambs [11]: absence of signs of toxicity
- efficacy against Oesophagostomum (in words) ([12]; 100 mg. and 200 mg. per kg): efficacious
- number of Oesophagostomum recovered at necropsy, individual lamb ([12]; 100 mg./kg.): 0
- average number of Oesophagostomum remaining ([12]; 100 mg./kg.): 0
- total number of Oesophagostomum remaining ([12]; 100 mg./kg.): 0
- mean percentage efficacy against Oesophagostomum ([12]; 100 mg./kg.): 100%
- number of Oesophagostomum recovered at necropsy, individual lamb ([12]; 200 mg./kg.): 0 and 3
- average number of Oesophagostomum remaining ([12]; 200 mg./kg.): < 1
- total number of Oesophagostomum remaining ([12]; 200 mg./kg.): 3
- mean percentage efficacy against Oesophagostomum ([12]; 200 mg./kg.): 90.6%
- efficacy against Nematodirus (in words) ([13]; 100 mg. and 200 mg. per kg): efficacious
- number of Nematodirus recovered at necropsy, individual lamb ([13]; 100 mg./kg.): 0
- average number of Nematodirus remaining ([13]; 100 mg./kg.): 0
- total number of Nematodirus remaining ([13]; 100 mg./kg.): 0
- mean percentage efficacy against Nematodirus ([13]; 100 mg./kg.): 100%
- number of Nematodirus recovered at necropsy, individual lamb ([13]; 200 mg./kg.): 0
- average number of Nematodirus remaining ([13]; 200 mg./kg.): 0
- total number of Nematodirus remaining ([13]; 200 mg./kg.): 0
- mean percentage efficacy against Nematodirus ([13]; 200 mg./kg., *= only one lamb infected): 100%
- activity against Strongyloides (egg counts and necropsy) ([14]; 300 mg./kg. oral): established activity
- activity against Strongyloides ([14]; 400 mg./kg. oral): Activity
- activity against Ostertagia (egg counts and necropsy) ([15]; 300 mg./kg. oral): established activity
- activity against Ostertagia ([15]; 400 mg./kg. oral): Activity
- anthelmintic activity [16]: effective against worms; also recorded: efficacious anthelmintic agents
- effectiveness of the dosage ([17]; 200 mg./kg. oral): somewhat effective
- helminth eggs in the feces ([17]; 200 mg./kg. oral): significantly fewer helminth eggs in the feces
- numbers of helminths at necropsy ([17]; 200 mg./kg. oral): reduced numbers of helminths at necropsy
- helminth egg counts ([17]; 300 mg./kg. oral): reduced significantly (except Trichuris)
- worm infestation on necropsy ([17]; 300 mg./kg. oral): low
- egg counts ([17]; 400 mg./kg. oral): significantly lowered egg counts
- worms at necropsy ([17]; 400 mg./kg. oral): absence of worms
- activity against Haemonchus (egg counts and necropsy) [18]: established activity
- efficacy against Trichostrongylus (in words) ([19]; 100 mg. and 200 mg. per kg): efficacious
- number of Trichostrongylus recovered at necropsy, individual lamb ([19]; 100 mg./kg.): 0 and 15
- average number of Trichostrongylus remaining ([19]; 100 mg./kg.): 4
- total number of Trichostrongylus remaining ([19]; 100 mg./kg.): 15
- mean percentage efficacy against Trichostrongylus ([19]; 100 mg./kg.): 98.7%
- number of Trichostrongylus recovered at necropsy, individual lamb ([19]; 200 mg./kg.): 0
- average number of Trichostrongylus remaining ([19]; 200 mg./kg.): 0
- total number of Trichostrongylus remaining ([19]; 200 mg./kg.): 0
- mean percentage efficacy against Trichostrongylus ([19]; 200 mg./kg.): 100%
- efficacy against Strongyloides (in words) ([20]; 100 mg. and 200 mg. per kg): efficacious
- number of Strongyloides recovered at necropsy, individual lamb ([20]; 100 mg./kg.): 2 and 0 and 11
- average number of Strongyloides remaining ([20]; 100 mg./kg.): 3
- total number of Strongyloides remaining ([20]; 100 mg./kg.): 13
- mean percentage efficacy against Strongyloides ([20]; 100 mg./kg.): 97.9%
- number of Strongyloides recovered at necropsy, individual lamb ([20]; 200 mg./kg.): 0
- average number of Strongyloides remaining ([20]; 200 mg./kg.): 0
- total number of Strongyloides remaining ([20]; 200 mg./kg.): 0
- mean percentage efficacy against Strongyloides ([20]; 200 mg./kg.): 100%
- activity against Trichostrongylus (egg counts and necropsy) ([21]; 300 mg./kg. oral): established activity
- activity against Trichostrongylus ([21]; 400 mg./kg. oral): Activity
- number of Bunostomum recovered at necropsy, individual lamb [22]: 2 and 1
- average number of Bunostomum remaining ([22]; group average): 1.5
- total number of Bunostomum remaining ([22]; group total): 3
- mean percentage efficacy against Bunostomum ([22]; vs unmedicated controls): 97%
- activity against Nematodirus (egg counts and necropsy) ([23]; 300 mg./kg. oral): established activity
- activity against Nematodirus ([23]; 400 mg./kg. oral): Activity
